Measured values: patent publication US20260240878A1, “PTP1B/TC-PTP DUAL INHIBITORS AND PROTEIN DEGRADERS” (Purdue Research Foundation, priority 2023, published 2026)
Values belong to the compound of their own block, whether it stands above or below them. *1 amine or outer side, *2 acyl side, *3 side chain or, on linkers, in order; H or OH if unused. Where a SMILES comes first, the peptide text is derived from it. [ ]: non-standard residue; d: D form. The star is where a group is joined. NHBn(4-(4-Me-thiazol-5-yl)) = Cc1ncsc1-c1ccc(CN*)cc1; NHCH2(1,3-C6H4)CH2CO = O=C(Cc1cccc(CN[*:1])c1)[*:2]; F2Pmp = N[C@@H](Cc1ccc(C(F)(F)P(=O)(O)O)cc1)C(=O)O; Phenylacetyl(4-OH,3-OMe) = COc1cc(CC(=O)*)ccc1O; Benzoyl(3-Br,4-Me) = Cc1ccc(C(=O)*)cc1Br; X1 = Cc1ncsc1-c1ccc([C@H](C)N*)cc1; cisHyp = O=C(O)[C@@H]1C[C@H](O)CN1; Hyp = O=C(O)[C@@H]1C[C@@H](O)CN1; dHyp = O=C(O)[C@H]1C[C@H](O)CN1; dTle = CC(C)(C)[C@@H](N)C(=O)O; Tle = CC(C)(C)[C@H](N)C(=O)O; Cbz = O=C(OCc1ccccc1)*; Aoc = NCCCCCCCC(=O)O; Ahx = NCCCCCC(=O)O

Columns and labels:
[1] = test system: compound 47-mediated PTP1B and TC-PTP degradation; experiment: Degradation mechanism verification in HEK293 cells (pretreatment with pathway blockers); format: cell-based; conditions: pretreatment then 100 nM compound 47 for 4 hours
Protocol: Cells were pre-treated with indicated concentration of MLN4924 (prevents ubiquitination), MG132 (blocks proteasome activity), lenalidomide (prevents CRBN binding) or (S,R,S)-AHPC-Me (prevents VHL binding) followed by 4 hours of treatment with compound 47 at 100 nM showing compound 47-mediated PTP1B/TC-PTP degradation depends on the ubiquitination-proteasome pathway. No degradation was observed when cells were treated with 100 nM cis-compound 47 (inactivated degrader) for 4 hours.
PROTAC-mediated protein degradation requires the obligatory formation of afunctional ternary complex of target protein-PROTAC-E3 ligase to enable target protein ubiquitination by the E3 ligase, followed by proteasomal degradation. The VHL E3 ligase dependency for compound 47 induced PTP1B and TC-PTP degradation was confirmed by preparing cis-isomer of compound 47 (cis-47) in which the VHL E3 ligand was replaced with (S,S,S)-AHPC-Me, an epimer of (S,R,S)-AHPC-Me with diminished affinity for VHL. […] Moreover, the addition of the VHL ligand (S,R,S)-AHPC-Me reduced the compound 47-mediated degradation of the two proteins (FIG. 6A). In contrast, pretreatment of the cell with lenalidomide, a ligand for cereblon (another E3 ligase commonly employed for PROTAC development), had no effect on compound 47-mediated PTP1B and TC-PTP degradation (FIG. 6A). […] The compound 47 mediated PTP1B and TC-PTP degradation and proteasome dependency were also verified by immunofluorescent imaging (FIGS. 6B and 6C).

pSTAT1 = experiment: STAT1 phosphorylation in IFN-γ stimulated HEK293 cells (western blot); format: cell-based; conditions: Homo sapiens; HEK293 cells, 16 hours, 20 ng/ml IFN-γ; read-out: EC50 of pSTAT1 activation
Protocol: Wild-type HEK293 cells were treated with compound 47 or ABBV-CLS-484 for 16 hours, and stimulated with 20 ng/ml IFN-γ to induce JAK-STAT signaling pathway activation.
Abbvie and Calico developed a potent PTP1B/TC-PTP inhibitor ABBV-CLS-484 (disclosed in International PCT application WO2019246513), and it is currently being evaluated as a treatment for locally advanced or metastatic tumors (NCT04777994).

PTP1B [2] = target: T1, PTP1B (Homo sapiens, UniProt P18031); experiment: PTP activity assay with pNPP substrate (IC50, Ki, mode of inhibition); format: biochemical; conditions: pNPP 2 mM, pH 7.0, 25° C.; read-out: IC50, nM PTP1B
T1 sequence (P18031 1-435): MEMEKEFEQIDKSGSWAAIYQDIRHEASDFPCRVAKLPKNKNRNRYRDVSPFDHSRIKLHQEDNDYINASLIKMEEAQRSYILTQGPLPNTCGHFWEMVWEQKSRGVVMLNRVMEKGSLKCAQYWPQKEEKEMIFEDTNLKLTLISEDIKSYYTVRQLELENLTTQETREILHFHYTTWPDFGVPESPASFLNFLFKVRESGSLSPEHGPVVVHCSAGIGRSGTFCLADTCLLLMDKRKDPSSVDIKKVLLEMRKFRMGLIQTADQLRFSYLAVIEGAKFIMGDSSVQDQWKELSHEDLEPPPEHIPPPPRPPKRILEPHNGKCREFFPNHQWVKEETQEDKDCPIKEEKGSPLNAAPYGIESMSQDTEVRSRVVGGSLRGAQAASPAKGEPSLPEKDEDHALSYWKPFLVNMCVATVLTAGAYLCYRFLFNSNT
Method in brief: (§1)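 Hydrolysis of pNPP measured spectrophotometrically in pH 7.0 DMG buffer (EDTA, NaCl, DTT, BSA) at 25 °C, 0.4 nM enzyme. IC50 at 2 mM pNPP (Km) over an inhibitor titration; mode of inhibition and Ki from rates across varied pNPP and inhibitor levels, fitted to enzyme kinetic models.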

TC-PTP [3] = target: T2, TC-PTP (Homo sapiens, UniProt P17706); experiment: as above; format: biochemical; conditions: pNPP 2 mM, pH 7.0, 25° C.; read-out: IC50, nM TC-PTP
T2 sequence (P17706 1-415): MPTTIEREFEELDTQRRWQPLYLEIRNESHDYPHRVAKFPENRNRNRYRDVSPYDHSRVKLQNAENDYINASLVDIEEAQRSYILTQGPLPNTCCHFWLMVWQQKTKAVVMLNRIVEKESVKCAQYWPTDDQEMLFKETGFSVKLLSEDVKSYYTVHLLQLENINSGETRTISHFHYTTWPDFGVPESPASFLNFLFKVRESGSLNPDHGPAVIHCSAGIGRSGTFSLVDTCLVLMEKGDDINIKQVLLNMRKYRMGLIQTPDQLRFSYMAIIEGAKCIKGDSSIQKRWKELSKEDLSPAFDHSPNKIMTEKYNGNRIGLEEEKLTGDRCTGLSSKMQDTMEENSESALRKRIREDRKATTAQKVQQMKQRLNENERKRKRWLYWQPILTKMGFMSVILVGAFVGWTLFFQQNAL
Method in brief: as §1

PTP1B [4] = target: T1, PTP1B; experiment: Degradation assay in HEK293 cells (immunoblotting); format: cell-based; design: endogenous in cells; host or cells: HEK293; conditions: 0.2 μM degrader, 16 hours
TC-PTP [5] = target: T2, TC-PTP; experiment: Degradation assay in HEK293 cells (immunoblotting); format: cell-based; design: endogenous in cells; host or cells: HEK293; conditions: 0.2 μM degrader, 16 hours, read-out: % Protein Degradation TC-PTP
PTP1B [6] = target: T1, PTP1B; experiment: Degradation assay in HEK293 cells (immunoblotting); format: cell-based; design: Degradation assay was conducted in HEK293 cells with 1 μM degrader and 24 hours incubation; endogenous in cells; host or cells: HEK293; conditions: 1 μM degrader, 24 hours
Protocol: (§2) HEK293. MIAPaCa-2, HepG2, U2OS, H116, MEF, B16F10, and MC38 cells, were grown in DMEM, while Jurkat and H358 cells were grown in RPMI 1640 supplemented with 10% fetal bovine serum, penicillin (50 units/mL), and streptomycin (50 μg/mL) in a 37° C. incubator containing 5% CO2. 20 ng/ml human (Biolegend #713906) or mouse (Biolegend #714006) Interferon-γ were used for JAK/STAT pathway stimulation.
(§3) Tissues or cultured cells were lysed with ice-cold lysis buffer (50 mM Tris (pH 8.0, 150 mM NaCl, 10% Glycerol, 1% Triton-X-100) supplied with phosphatase inhibitor (Bimake) and protease inhibitor mixture (Roche Applied Science). Equal amounts of protein were resolved by SDS-PAGE, transferred to nitrocellulose membrane, and subjected to immunoblotting. Antibodies used in this study include anti-following proteins: pSTAT1^Tyr701 (Cell Signaling Technology #9167, 1:3000), GAPDH (Cell Signaling Technology #97166, 1:5000), pJAK1^Tyr1034/1035 (Cell Signaling Technology #74129, 1:1000), pJAK2^Tyr1007/1008 (Cell Signaling Technology #3776, 1:1000), TC-PTP (Abcam #ab180764, 1:3000). PTP1B (Abcam #ab244207, 1:1500).
(§4) Degradation assay was conducted in HEK293 cells with 1 μM degrader and 24 hours incubation.
(§5) The degradation assay was conducted in HEK293 cells with 0.2 μM degrader and 16 hours incubation.

TC-PTP [7] = target: T2, TC-PTP; experiment: Degradation assay in HEK293 cells (immunoblotting); format: cell-based; design: Degradation assay was conducted in HEK293 cells with 1 μM degrader and 24 hours incubation; endogenous in cells; host or cells: HEK293; conditions: 1 μM degrader, 24 hours, read-out: % Protein Degradation TC-PTP
Protocol: as §2, §3, §4, §5

PTP1B [8] = target: T1, PTP1B; experiment: Degradation assay in HEK293 cells (immunoblotting); format: cell-based; design: Degradation assay was conducted in HEK293 cells with 1 μM degrader and 24 hours incubation; endogenous in cells; host or cells: HEK293; conditions: 100 nM, 4 hours
TC-PTP [9] = target: T2, TC-PTP; experiment: Degradation assay in HEK293 cells (immunoblotting); format: cell-based; design: Degradation assay was conducted in HEK293 cells with 1 μM degrader and 24 hours incubation; endogenous in cells; host or cells: HEK293; conditions: 100 nM, 4 hours

Compound: Cc1ncsc1-c1ccc([C@H](C)NC(=O)[C@@H]2C[C@@H](O)CN2C(=O)[C@@H](N)C(C)(C)C)cc1 [(S,R,S)-AHPC-Me]
- effect of pretreatment on compound 47-mediated PTP1B and TC-PTP degradation [1]: reduced

- EC50 (pSTAT1): 0.0797 µM
Compound: CC(C)CCN[C@@H]1CCc2cc(O)c(N3CC(=O)NS3(=O)=O)c(F)c2C1 [ABBV-CLS-484, reference compound]

Compound: COc1cc(CC(=O)N[C@@H](Cc2ccccc2)C(=O)N[C@@H](Cc2ccc(C(F)(F)P(=O)(O)O)cc2)C(=O)N[C@@H](CCCCNC(=O)c2ccc(C)c(Br)c2)C(=O)NCCCCCC(=O)N[C@H](C(=O)N2C[C@H](O)C[C@H]2C(=O)NCc2ccc(-c3scnc3C)cc2)C(C)(C)C)ccc1O [Compound 8, ((4-((S)-3-(((S)-6-(3-bromo-4-methylbenzamido)-1-((6-(((S)-1-((2S,4R)-4-hydroxy-2-((4-(4-methylthiazol-5-yl)benzyl)carbamoyl)pyrrolidin-1-yl)-3,3-dimethyl-1-oxobutan-2-yl)amino)-6-oxohexyl)amino)-1-oxohexan-2-yl)amino)-2-((S)-2-(2-(4-hydroxy-3-methoxyphenyl)acetamido)-3-phenylpropanamido)-3-oxopropyl)phenyl)difluoromethyl)phosphonic Acid] ({Phenylacetyl(4-OH,3-OMe)}-F[F2Pmp]K(Benzoyl(3-Br,4-Me))[Ahx][Tle][Hyp]-{NHBn(4-(4-Me-thiazol-5-yl))})
- IC50 (PTP1B [2]): 16.7 ± 0.9 nM
- IC50 (TC-PTP [3]): 12.8 ± 3.7 nM
- % Protein Degradation PTP1B (PTP1B [4]): 61%
- percent TC-PTP degradation at 0.2 µM (TC-PTP [5]): 58%
- % Protein Degradation PTP1B (PTP1B [6]): 81%
- percent TC-PTP degradation at 1 µM (TC-PTP [7]): 83%

Compound: COc1cc(CC(=O)N[C@@H](Cc2ccccc2)C(=O)N[C@@H](Cc2ccc(C(F)(F)P(=O)(O)O)cc2)C(=O)N[C@@H](CCCCNC(=O)c2ccc(C)c(Br)c2)C(=O)NCCCCCCCC(=O)N[C@@H](C(=O)N2C[C@@H](O)C[C@@H]2C(=O)NCc2ccc(-c3scnc3C)cc2)C(C)(C)C)ccc1O [Compound 83, ((4-((S)-3-(((S)-6-(3-bromo-4-methylbenzamido)-1-((8-(((R)-1-((2R,4S)-4-hydroxy-2-((4-(4-methylthiazol-5-yl)benzyl)carbamoyl)pyrrolidin-1-yl)-3,3-dimethyl-1-oxobutan-2-yl)amino)-8-oxooctyl)amino)-1-oxohexan-2-yl)amino)-2-((S)-2-(2-(4-hydroxy-3-methoxyphenyl)acetamido)-3-phenylpropanamido)-3-oxopropyl)phenyl)difluoromethyl)phosphonic Acid] ({Phenylacetyl(4-OH,3-OMe)}-F[F2Pmp]K(Benzoyl(3-Br,4-Me))[Aoc][dTle][dHyp]-{NHBn(4-(4-Me-thiazol-5-yl))})
- IC50 (PTP1B [2]): 19 ± 1.9 nM
- IC50 (TC-PTP [3]): 10.6 ± 0.3 nM
- % Protein Degradation PTP1B (PTP1B [6]): 58%
- percent TC-PTP degradation at 1 µM (TC-PTP [7]): 66%

Compound: CC(C)C[C@@H](C=O)NC(=O)[C@H](CC(C)C)NC(=O)[C@H](CC(C)C)NC(=O)OCc1ccccc1 [MG-132] (Cbz-Leu-Leu-Leu-aldehyde)
- effect of pretreatment on compound 47-mediated PTP1B and TC-PTP degradation [1]: markedly reduced

Compound: NS(=O)(=O)OC[C@@H]1C[C@@H](n2ccc3c(N[C@H]4CCc5ccccc54)ncnc32)C[C@@H]1O [MLN-4924]
- effect of pretreatment on compound 47-mediated PTP1B and TC-PTP degradation [1]: markedly reduced

Compound: COc1cc(CC(=O)N[C@@H](Cc2ccccc2)C(=O)N[C@@H](Cc2ccc(C(F)(F)P(=O)(O)O)cc2)C(=O)N[C@@H](CCCCNC(=O)c2ccc(C)c(Br)c2)C(=O)NCc2cccc(CC(=O)N[C@H](C(=O)N3C[C@@H](O)C[C@H]3C(=O)N[C@@H](C)c3ccc(-c4scnc4C)cc3)C(C)(C)C)c2)ccc1O [cis-47] ({Phenylacetyl(4-OH,3-OMe)}-F[F2Pmp]K(Benzoyl(3-Br,4-Me))[NHCH2(1,3-C6H4)CH2CO][Tle][cisHyp]-X1)
- IC50 (PTP1B [2]): 25.1 ± 1.6 nM
- IC50 (TC-PTP [3]): 29.7 ± 2.1 nM
- PTP1B degradation (PTP1B [8]): failed to degrade
- TC-PTP degradation (TC-PTP [9]): failed to degrade

Compound: Nc1cccc2c1CN(C1CCC(=O)NC1=O)C2=O (stereo not shown) [lenalidomide]
- effect of pretreatment on compound 47-mediated PTP1B and TC-PTP degradation [1]: had no effect
